Measured values: patent publication EP1862459A1, “Novel heterocyclic compounds” (GLAXO GROUP LIMITED, priority 2006, dated 2007)
Values after ≈ are worked out from the molar mass of the structure shown.

Test: physchem
Type: physicochemical
Settings: fassif, pH 6.8, Solubility in FaSSIF µg/ml
Experimental: Compound solubility determination
An amount of 3 mg solid compound with LC-MS purity ≥ 95% was required. This amount was split between 3 different glass vials (1.8 ml volume each), placing 1 mg compound into each one.
Organic solvents of HPLC grade were used. Ultra pure water (Milli-Q grade) was used. Buffers were prepared with ultra pure water and filtered using 0.45 […] cameo filters. The compositions of each solvent employed in this assay are described below (part III).
For each of the three vial samples prepared as described above, in which the amount of compound was totally dissolved, the following procedure was subsequently carried out: • a) A small amount (approx. 0.1mg) of additional solid compound was added to the vial to maintain an excess of the compound in the mixture in the form of undissolved solid. • b) The samples were magnetically stirred for 24 hr. If required, additional solid compound (0.1mg) was added to maintain excess of it and then the samples were stirred again. • c) Then the samples were filtered (Millipore Milex filters nylon 0.2 um) and three aliquots were taken (one from each of the three vials) and analysed by LC-MS. • d) The pH of the final solution in each sample was measured with a pH-meter (WTW pH330i and a pH-electrode Sentix 41).
All filtered aliquots were analysed by LC-MS. […]

Structure (SMILES) | solubility [µg/mL]
CC1=C(Cl)C(=O)C(CO)(c2ccc(Oc3ccc(OC(F)(F)F)cc3)cc2)CN1 (centres unmarked) [Example 1, 3-Chloro-5-(hydroxymethyl)-2-methyl-5-[4-({4-[(trifluoromethyl)oxy]phenyl}oxy)phenyl]-4(1H)-pyridinone] | 1 to 5 (≈ 2.34 to 11.7 µM)
Cc1[nH]c(C=NO)c(-c2ccc(Oc3ccc(OC(F)(F)F)cc3)cc2)c(=O)c1Cl [Example 5, 5-Chloro-6-methyl-4-oxo-3-[4-({4-[(trifluoromethyl)oxy]phenyl}oxy)phenyl]-1,4-dihydro-2-pyridinecarbaldehyde oxime] | 5 to 10 (≈ 11.4 to 22.8 µM)
